Experimental data reported in US20240058283A1, “THE MODE OF ACTION OF N-MeDCPA ON TRPC CHANNELS” (West Virginia University Board of Governors on Behalf of …, priority 2022, published 2024).

What was measured:
TRPC4 = biological target: T1, TRPC4 (Homo sapiens, UniProt Q9UBN4); assay: FIG. 4 TRPC4 overexpressing cells, fura, OAG in the presence of Ca2+; assay type: cell-based; details: TRPC4 O/E cells, Ca2+ present, N=4
T1 construct: expressed in transfected cells; host or cells: HEK293 (transient transfection)
T1 sequence (Q9UBN4 1-977): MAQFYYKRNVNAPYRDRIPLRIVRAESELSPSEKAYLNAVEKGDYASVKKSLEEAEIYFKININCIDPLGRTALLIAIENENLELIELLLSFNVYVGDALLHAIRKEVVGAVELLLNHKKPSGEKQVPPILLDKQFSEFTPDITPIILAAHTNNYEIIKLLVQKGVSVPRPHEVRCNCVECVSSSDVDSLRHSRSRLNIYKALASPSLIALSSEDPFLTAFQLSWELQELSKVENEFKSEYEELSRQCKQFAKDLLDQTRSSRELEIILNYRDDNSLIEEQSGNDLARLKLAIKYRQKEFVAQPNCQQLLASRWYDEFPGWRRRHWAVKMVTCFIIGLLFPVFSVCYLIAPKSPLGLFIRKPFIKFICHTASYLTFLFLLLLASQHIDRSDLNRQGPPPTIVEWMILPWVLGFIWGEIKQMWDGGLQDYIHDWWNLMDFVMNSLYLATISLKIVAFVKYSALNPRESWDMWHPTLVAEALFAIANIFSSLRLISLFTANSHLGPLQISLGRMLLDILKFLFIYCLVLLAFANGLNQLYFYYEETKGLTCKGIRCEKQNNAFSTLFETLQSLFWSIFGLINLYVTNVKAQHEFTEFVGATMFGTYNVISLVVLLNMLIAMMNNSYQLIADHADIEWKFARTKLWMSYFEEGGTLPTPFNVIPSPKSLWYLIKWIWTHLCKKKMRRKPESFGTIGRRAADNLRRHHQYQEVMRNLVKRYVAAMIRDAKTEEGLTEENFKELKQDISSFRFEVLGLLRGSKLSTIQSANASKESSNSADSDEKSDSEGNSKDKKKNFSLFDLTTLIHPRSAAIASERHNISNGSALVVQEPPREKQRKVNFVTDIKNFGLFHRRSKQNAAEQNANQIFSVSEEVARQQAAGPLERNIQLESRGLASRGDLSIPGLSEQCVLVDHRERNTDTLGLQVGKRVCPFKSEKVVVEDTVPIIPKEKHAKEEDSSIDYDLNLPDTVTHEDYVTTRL
From the text: (§1) The assay was done in the presence of Ca^2+. OAG (1-Oleoyl-2-acetyl-sn-glycerol) is a cell permeable DAG analog and directly activates these TRPC channels (i.e. TRPC4 and TRPC5).

TRPC5 = biological target: T2, TRPC5 (Homo sapiens, UniProt Q9UL62); assay: FIG. 4 TRPC5 overexpressing cells, fura, OAG in the presence of Ca2+; assay type: cell-based; details: TRPC5 O/E cells, N=4
T2 construct: expressed in transfected cells; host or cells: HEK293 (transient transfection)
T2 sequence (Q9UL62 1-973): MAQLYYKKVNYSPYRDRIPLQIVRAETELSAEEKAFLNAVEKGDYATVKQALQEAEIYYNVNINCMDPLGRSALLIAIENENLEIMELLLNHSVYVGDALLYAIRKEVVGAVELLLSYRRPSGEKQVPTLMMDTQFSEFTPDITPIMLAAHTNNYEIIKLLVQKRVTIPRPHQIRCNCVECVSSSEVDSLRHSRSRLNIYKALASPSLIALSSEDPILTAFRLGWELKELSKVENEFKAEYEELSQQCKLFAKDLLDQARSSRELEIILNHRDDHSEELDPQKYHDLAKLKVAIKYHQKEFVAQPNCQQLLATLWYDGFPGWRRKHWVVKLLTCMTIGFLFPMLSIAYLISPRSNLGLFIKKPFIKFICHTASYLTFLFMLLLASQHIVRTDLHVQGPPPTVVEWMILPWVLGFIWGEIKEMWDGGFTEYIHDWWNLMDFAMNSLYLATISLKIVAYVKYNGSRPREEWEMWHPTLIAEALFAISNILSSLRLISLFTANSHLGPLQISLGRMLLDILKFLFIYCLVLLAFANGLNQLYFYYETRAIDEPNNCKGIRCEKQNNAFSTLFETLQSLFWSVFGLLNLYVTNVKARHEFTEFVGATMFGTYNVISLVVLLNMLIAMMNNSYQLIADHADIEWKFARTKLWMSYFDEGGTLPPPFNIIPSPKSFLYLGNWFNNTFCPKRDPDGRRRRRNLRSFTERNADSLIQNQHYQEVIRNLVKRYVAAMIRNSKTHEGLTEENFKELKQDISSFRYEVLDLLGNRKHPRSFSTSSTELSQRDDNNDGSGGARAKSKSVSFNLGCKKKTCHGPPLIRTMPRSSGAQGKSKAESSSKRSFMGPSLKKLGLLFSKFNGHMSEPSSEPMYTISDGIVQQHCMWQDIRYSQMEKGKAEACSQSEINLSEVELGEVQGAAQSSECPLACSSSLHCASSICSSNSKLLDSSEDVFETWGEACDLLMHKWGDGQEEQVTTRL
From the text: as §1

In the case of `CCC(=O)N(C)c1ccc(Cl)c(Cl)c1` [ELP-004, N-(3,4-dichlorophenyl)-N-methylpropanamide], the IC50 (TRPC4) is reported as 172 nM, the “maximal inhibition of TRPC5 against the >50% threshold” value (TRPC5) is reported as “does not reach the threshold of >50% inhibition” and the IC50 (TRPC5; OAG, Ca2+ present) is reported as 11 nM.
